# From PubChem BioAssay AID1083 (University of Pittsburgh Molecular Library Screening Center, 2008)
# pIC50: −log10 of the molar value. Where “and” joins values, the source holds several entries; their conditions need not be identical. Equal values may be shown once. Calls of active or inactive are those of the source. No rule for the calls is given here.
# Target: Serine/threonine-protein kinase PLK1 (Homo sapiens) (UniProt P53350)
# Assay: PLK1 polo-box domain peptide-binding inhibitors, SAR follow-up, biochemical, fluorescence polarization, purchased analogs, concentration response (AID 1083)
# Details: Plk1 PBD peptide binding
# Chain of Serine/threonine-protein kinase PLK1 (Homo sapiens) (P53350 whole entry, looked up, the tested form may be a part): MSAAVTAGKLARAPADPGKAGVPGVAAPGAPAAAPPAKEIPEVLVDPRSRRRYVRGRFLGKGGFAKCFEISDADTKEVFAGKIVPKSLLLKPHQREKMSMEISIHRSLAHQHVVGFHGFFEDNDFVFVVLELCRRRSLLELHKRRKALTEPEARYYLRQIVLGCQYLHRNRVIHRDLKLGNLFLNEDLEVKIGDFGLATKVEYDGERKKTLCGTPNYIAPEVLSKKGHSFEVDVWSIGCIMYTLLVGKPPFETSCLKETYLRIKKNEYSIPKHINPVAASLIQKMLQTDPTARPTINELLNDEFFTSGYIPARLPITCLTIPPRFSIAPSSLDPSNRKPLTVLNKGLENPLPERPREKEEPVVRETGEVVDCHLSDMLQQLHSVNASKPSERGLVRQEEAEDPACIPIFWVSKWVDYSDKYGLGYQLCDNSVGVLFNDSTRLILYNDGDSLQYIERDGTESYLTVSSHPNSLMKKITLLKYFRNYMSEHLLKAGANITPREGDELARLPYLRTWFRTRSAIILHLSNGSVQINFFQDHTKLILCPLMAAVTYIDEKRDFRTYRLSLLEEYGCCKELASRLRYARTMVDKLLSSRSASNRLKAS
SMILES,IC50,pIC50
COc1ccc(N(CN2C(=O)c3ccccc3C2=O)C(C)=O)cc1,> 50 µM (inactive),
Cn1c(=O)[nH]c2nnc(-c3ccc(F)cc3)nc2c1=O,> 50 µM (inactive),
COc1ccc(N(/N=C2\Sc3ccccc3C2=O)C(C)=O)cc1,,4.82
CCCCOC(=O)c1ccc(N=Cc2c(O)[nH]c(=O)[nH]c2=O)cc1,> 50 µM (inactive),
CCOC(=O)c1ccc(N=Cc2c(O)n(-c3ccc(C)cc3)c(=O)[nH]c2=O)cc1,> 50 µM (inactive),
CCOC(=O)c1ccc(NC(=O)C23CC4CC(CC(C4)C2)C3)cc1,> 50 µM (inactive),
CCOC(=O)c1ccc(N=Cc2c(O)n(-c3cccc(C)c3)c(=O)[nH]c2=O)cc1,> 50 µM (inactive),
CCOC(=O)c1ccc(N=Cc2c(O)n(-c3ccc(OCC)cc3)c(=O)[nH]c2=O)cc1,> 50 µM (inactive),
CCCCCCC(=O)N(CN1C(=O)c2ccccc2C1=O)c1ccc(OCc2ccccc2)cc1,> 50 µM (inactive),
CCOC(=O)c1ccc(N=Cc2c(O)n(CC)c(=O)[nH]c2=O)cc1,> 50 µM (inactive),
CCOC(=O)c1ccc(NC(=O)c2cc(=O)[nH]c3ccccc23)cc1,> 50 µM (inactive),
COc1ccccc1N(/N=C1\Sc2ccccc2C1=O)C(C)=O,,4.88
CCOC(=O)c1ccc(NC(=O)C2C3C=CC(C3)C2C(=O)O)cc1 (stereo unspecified),> 50 µM (inactive),
CCN(CC)CCOC(=O)c1ccc(N=Cc2c(O)n(Cc3ccccc3)c(=O)[nH]c2=O)cc1,> 50 µM (inactive),
CCCCCCC(=O)N(CN1C(=O)c2ccccc2C1=O)c1ccccc1,> 50 µM (inactive),
CCOC(=O)c1ccc(NC(=O)C2Oc3ccccc3OC2C)cc1 (stereo unspecified),> 50 µM (inactive),
CC(=O)N(CN1C(=O)c2ccccc2C1=O)c1ccc(F)cc1,> 50 µM (inactive),
CCOC(=O)c1ccc(NC(=O)C2CC(=O)N=C(N)S2)cc1 (stereo unspecified),> 50 µM (inactive),
CC1CN(c2cc3nccnc3cc2F)CC(C)O1 (stereo unspecified),> 50 µM (inactive),
CCN(CC)CCOC(=O)c1ccc(NC(=O)c2cc(OC)c(OC)cc2OC)cc1,> 50 µM (inactive),
CC(=O)N(/N=C1\Sc2ccccc2C1=O)c1ccc(C)cc1C,> 50 µM (inactive),

SMILES,IC50,pIC50
CCOC(=O)c1ccc(NC(=O)C2C3CCC(C3)C2C(=O)O)cc1 (stereo unspecified),> 50 µM (inactive),
Cn1nc(-c2ccc([N+](=O)[O-])cc2)nc2c(=O)n(C)c(=O)nc1-2,,6.43
CCOc1ccc(-c2nc3c(=O)n(C)c(=O)nc-3n(C)n2)cc1OC,,7.66
O=C(COC(=O)c1ccc(NC(=O)c2ccc([N+](=O)[O-])cc2)cc1)c1ccccc1,> 50 µM (inactive),
CC(=O)N(/N=C1\Sc2ccccc2C1=O)c1ccccc1,,4.69
CCn1nc(-c2cccc(Cl)c2)nc2c(=O)n(C)c(=O)nc1-2,0.282 µM and > 50 µM (inactive),
Cc1ccc(C(=O)CN2C=CC(=C(O)NCc3ccccc3)C=C2)cc1,> 50 µM (inactive),
CC(=O)N(CN1C(=O)c2ccccc2C1=O)c1ccccc1C,> 50 µM (inactive),
Cn1c(O)c(C(=O)c2ccccc2Cl)c(=O)n(C)c1=O,> 50 µM (inactive),
CC(=O)N(/C=C1\Sc2ccccc2C1=O)c1cc(C(F)(F)F)ccc1Cl,> 50 µM (inactive),
CC(=O)N(CN1C(=O)c2cc(Cl)c(Cl)cc2C1=O)c1ccc(C)c(Cl)c1,> 50 µM (inactive),
CCCCCC(=O)N(CN1C(=O)c2ccccc2C1=O)c1ccc(OCc2ccccc2)cc1,> 50 µM (inactive),
Cn1nc(-c2ccc(C(F)(F)F)cc2)nc2c(=O)n(C)c(=O)nc1-2,,6.68 and 6.07
CC(=O)N(CN1C(=O)c2ccccc2C1=O)c1ccc2ccccc2c1,> 50 µM (inactive),
CN(C)c1ccc(-c2nnc3c(n2)c(=O)n(C)c(=O)n3C)cc1,> 50 µM (inactive),
CCOC(=O)c1ccc(N=Cc2c(O)n(Cc3ccccc3Cl)c(=O)[nH]c2=O)cc1,> 50 µM (inactive),
CCCOC(=O)c1ccc(NC(=O)c2c(F)c(F)c(F)c(F)c2F)cc1,> 50 µM (inactive),
CC(=O)N(/C=C1\Sc2ccccc2C1=O)c1ccc(C)c(C)c1,> 50 µM (inactive),
CC(=O)N(CN1C(=O)c2ccc(Br)cc2C1=O)c1ccc(Cl)cc1,> 50 µM (inactive),
Cc1ccc(-c2nc3c(=O)n(C)c(=O)nc-3n(C)n2)cc1,,5.87
CCCOC(=O)c1ccc(NC(=O)c2cc(-c3cccs3)nc3c(C)c(Cl)ccc23)cc1,> 50 µM (inactive),

SMILES,IC50,pIC50
CCOC(=O)c1ccc(NC(=O)C2COc3ccccc3O2)cc1 (stereo unspecified),> 50 µM (inactive),
COc1cc(C=C2C(=O)NC(=O)NC2=O)cc(Cl)c1O,> 50 µM (inactive),
CC(=O)N(CN1C(=O)c2ccccc2C1=O)c1cc(C)ccc1C,> 50 µM (inactive),
COc1ccc(-c2nnc3[nH]c(=O)n(C)c(=O)c3n2)cc1OC,> 50 µM (inactive),
CC(=O)N(CN1C(=O)c2ccccc2C1=O)c1ccc(C)cc1,> 50 µM (inactive),
CC(=O)N(CN1C(=O)c2ccccc2C1=O)c1cccc(F)c1,> 50 µM (inactive),
COc1ccccc1N(CN1C(=O)c2ccc([N+](=O)[O-])cc2C1=O)C(C)=O,> 50 µM (inactive),
CCn1nc(-c2ccc(OC)cc2)nc2c(=O)n(C)c(=O)nc1-2,,6.04
CCn1nc(-c2ccccc2)nc2c(=O)n(C)c(=O)nc1-2,,6.28
CC(=O)N(CN1C(=O)c2ccccc2C1=O)c1ccc(Oc2ccccc2)cc1,> 50 µM (inactive),
CC(=O)N(CN1C(=O)c2cccc([N+](=O)[O-])c2C1=O)c1ccc2c(c1)oc1ccccc12,> 50 µM (inactive),
CCOC(=O)c1ccc(N=C(c2ccccc2)c2c(O)n(C)c(=O)n(C)c2=O)cc1,> 50 µM (inactive),
CC(=O)N(CN1C(=O)c2ccccc2C1=O)c1ccc(Cl)c(Cl)c1,> 50 µM (inactive),
CCOC(=O)c1ccc(N=Cc2c(O)n(Cc3ccccc3)c(=O)[nH]c2=O)cc1,> 50 µM (inactive),
CCOC(=O)c1ccc(N=Cc2c(O)n(C)c(=O)n(C)c2=O)cc1,> 50 µM (inactive),
CCOC(=O)c1ccc(NC(=O)c2cc(C)cc(C)c2)cc1,> 50 µM (inactive),
Cn1c(=O)c2nc(-c3ccccc3)c(=O)n(C)c2n(C)c1=O,> 50 µM (inactive),
Cn1c(=O)[nH]c2nnc(-c3ccc([N+](=O)[O-])cc3)nc2c1=O,> 50 µM (inactive),
Cn1nc(-c2ccc(F)cc2)nc2c(=O)n(C)c(=O)nc1-2,,6.49
